Results on ten compounds are retold here after PubChem BioAssay (NCI).

Structures are written as SMILES. In brackets after ≈: the same amount, converted by molar mass. Several values for one entry are separate records, joined by “and”; a condition that tells them apart may be missing. Identical values can stand only once.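 Compound exposure: 48 hours, 5 concentrations, 96-well plates. The concentration for 50% growth inhibition is given as GI50. TGI: concentration producing complete growth inhibition.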

Some test systems named below: 786-0 renal; ACHN renal; BT-549 breast; DU-145 prostate; IGROV1 ovarian; KM20L2 colon; M19-MEL melanoma; NCI/ADR-RES ovarian; SNB-19 CNS; SR leukemia.
Assay in all cases: NCI-60 cell line screen, 48 h

On to `Cc1c(N)nc(C(CC(N)=O)NCC(N)C(N)=O)nc1C(=O)NC(C(=O)NC(C)C(O)C(C)C(=O)NC(C(=O)NCCc1nc(-c2nc(C(=O)NCCCNCCCCN)cs2)cs1)C(C)O)C(OC1OC(CO)C(O)C(O)C1OC1OC(CO)C(O)C(OC(N)=O)C1O)c1cnc[nH]1` (configuration not stated), for which the GI50 with 786-0 renal was 0.895 µg/mL and 0.562 µg/mL; in the test with ACHN renal, 0.182 µg/mL and 0.0425 µg/mL; in the test on BT-549 breast, 13.7 µg/mL (≈ 9.54 µM); in the test on DU-145 prostate, 2.17 µg/mL and 11.3 µg/mL; in the test on IGROV1 ovarian, 9.17 µg/mL and 6.68 µg/mL; in the test with NCI/ADR-RES ovarian it was 3.44 µg/mL and 1.4 µg/mL. Also, the GI50 is 8.2 µg/mL and 29.7 µg/mL with SNB-19 CNS; 0.0139 µg/mL (≈ 0.00962 µM) in the test on SR leukemia. The TGI in the test on 786-0 renal was 19.4 µg/mL and > 10 µM; with DU-145 prostate, 48 µg/mL; in the test with IGROV1 ovarian, above 10 µM; in the test with KM20L2 colon, above 10 µM; in the test with M19-MEL melanoma it was above 10 µM; with NCI/ADR-RES ovarian, 17 µg/mL. Further, the results for the TGI in the test with SNB-19 CNS and in the test with SR leukemia were above 10 µM and 0.287 µg/mL, respectively.
With `CCCCN(CCCC)C(=O)C(=O)CC(=O)/C=C/c1ccccc1`, the TGI in the test on 786-0 renal, with ACHN renal, in the test with IGROV1 ovarian, with KM20L2 colon, with M19-MEL melanoma and with SNB-19 CNS was above 100 µM each time. In addition, the TGI in the test on SR leukemia was above 100 µM.
Turning to `CCOC(=O)NC(=O)c1cn(C2OC(CO)C(O)C2O)c(=O)[nH]c1=O` (configuration not stated), the TGI with 786-0 renal, with ACHN renal, in the test on IGROV1 ovarian, in the test with KM20L2 colon, with M19-MEL melanoma and in the test with SNB-19 CNS was above 100 µM throughout. The compound further returned a TGI with SR leukemia above 100 µM.
Turning to `COc1cc(C(=O)C/C(CCC(=O)Nc2ccc(Cl)cc2Cl)=N/Nc2nnc(C)n2N)ccc1O`, the TGI with 786-0 renal, in the test on ACHN renal, with IGROV1 ovarian, with KM20L2 colon, in the test on M19-MEL melanoma and in the test on SNB-19 CNS was above 100 µM throughout. In the test on SR leukemia, this compound showed a TGI above 100 µM.
As for `O=c1cccccc1NCCNc1cccccc1=O`, the TGI in the test with 786-0 renal, in the test with ACHN renal, with IGROV1 ovarian, in the test with KM20L2 colon, in the test with M19-MEL melanoma and with SNB-19 CNS was above 100 µM in each case. The TGI in the test on SR leukemia was above 100 µM.
Regarding `COc1cccc2ccc3c(c12)C(=O)OC31CCc2c(C)cccc21` (configuration not stated), the TGI in the test on 786-0 renal was above 46.4 µM; in the test with ACHN renal, 40.5 µM; in the test with BT-549 breast, above 100 µM; with DU-145 prostate it was above 100 µM; in the test on IGROV1 ovarian it was above 46.4 µM; in the test with KM20L2 colon, above 31.6 µM. Further, the TGI in the test on M19-MEL melanoma is above 31.6 µM; with NCI/ADR-RES ovarian, above 100 µM; with SNB-19 CNS, above 46.4 µM; with SR leukemia it was 18.4 µM.
On to `O=C(Nc1ccccc1C(=O)O)C(=O)C(C(=O)c1ccccc1-c1ccccc1)C1OC(=O)c2ccccc21` (configuration not stated), for which the TGI in the test on 786-0 renal was 33.3 µM; with ACHN renal it was 92.3 µM; in the test with IGROV1 ovarian it was 56.3 µM; in the test on KM20L2 colon, 44 µM; in the test on M19-MEL melanoma, 64.2 µM; in the test with SNB-19 CNS it was 35.2 µM. In addition, the TGI with SR leukemia worked out at 71.1 µM.
As to `Cc1ccc(SCC(O)=C2C(=O)CCCC2=O)cc1`, the TGI in the test with 786-0 renal, in the test on ACHN renal, with IGROV1 ovarian, in the test on KM20L2 colon, with M19-MEL melanoma and in the test on SNB-19 CNS was above 100 µM each time. The compound further returned a TGI in the test on SR leukemia above 100 µM.
Regarding `COc1cc2c3c(c1OC)Oc1ccc(cc1)CC1c4c(cc(OC)c(OC)c4Oc4ccc(cc4)CC3N(C)CC2)CCN1C` (configuration not stated), the TGI in the test on 786-0 renal was 53 µM; in the test with ACHN renal, above 100 µM; in the test on IGROV1 ovarian it was 67.8 µM; in the test on KM20L2 colon it was 45.2 µM; with M19-MEL melanoma, 31.3 µM; in the test on SNB-19 CNS, above 100 µM. In the test on SR leukemia, this compound came in with a TGI of 7.24 µM.
For `O=C(O)Cc1cc(=O)[nH]c2c1C(=O)CCC2`, the TGI with 786-0 renal, in the test with ACHN renal, with IGROV1 ovarian, in the test with KM20L2 colon, in the test with M19-MEL melanoma and with SNB-19 CNS was above 100 µM throughout. Moreover, the TGI with SR leukemia was above 100 µM.
